What was measured:
[1] = target: T1, Bromodomain-containing protein 4 (Homo sapiens, UniProt O60885); assay: Inhibition of BRD4-BD1 (unknown origin)
Histone deacetylase 1 = Histone deacetylase 1 (Homo sapiens, UniProt Q13547); assay: Inhibition of HDAC1 (unknown origin)
[2] = target: T1, Bromodomain-containing protein 4; assay: Inhibition of GST-tagged BRD4 (unknown origin) by HTRF assay
[3] = target: T2, Bromodomain-containing protein 2 (Homo sapiens, UniProt P25440); assay: Inhibition of recombinant BRD2-BD1 (unknown origin) by TR-FRET assay
[4] = target: T3, Bromodomain testis-specific protein (Homo sapiens, UniProt Q58F21); assay: Inhibition of recombinant BRDT-BD2 (unknown origin) by TR-FRET assay
[5] = target: T4, Bromodomain-containing protein 3 (Homo sapiens, UniProt Q15059); assay: Inhibition of recombinant BRD3-BD2 (unknown origin) by TR-FRET assay
[6] = target: T4, Bromodomain-containing protein 3; assay: Inhibition of recombinant BRD3-BD1 (unknown origin) by TR-FRET assay
[7] = target: T3, Bromodomain testis-specific protein; assay: Inhibition of recombinant BRDT-BD1 (unknown origin) by TR-FRET assay
[8] = target: T2, Bromodomain-containing protein 2; assay: Inhibition of recombinant BRD2-BD2 (unknown origin) by TR-FRET assay
Histone deacetylase 3 = Histone deacetylase 3 (Homo sapiens, UniProt O15379); assay: Inhibition of human HDAC3 using Boc-Lys(Ac)-AMC as substrate by fluorescence based assay
[9] = target: T1, Bromodomain-containing protein 4; assay: Inhibition of BRD4-BD2 (unknown origin)
Histone deacetylase = assay: Inhibition of HDAC (unknown origin) by ELISA; type: protein assay, Homo sapiens
U-937 = assay: Cytotoxicity against human U-937 cells assessed as cell viability at 3 uM by MTT assay relative to control; type: functional; details: read-out: Activity
[10] = target: T1, Bromodomain-containing protein 4
Description: Inhibition of BRD4 (unknown origin) by ELISA

Sequence of Histone deacetylase 1 (Q13547 whole entry): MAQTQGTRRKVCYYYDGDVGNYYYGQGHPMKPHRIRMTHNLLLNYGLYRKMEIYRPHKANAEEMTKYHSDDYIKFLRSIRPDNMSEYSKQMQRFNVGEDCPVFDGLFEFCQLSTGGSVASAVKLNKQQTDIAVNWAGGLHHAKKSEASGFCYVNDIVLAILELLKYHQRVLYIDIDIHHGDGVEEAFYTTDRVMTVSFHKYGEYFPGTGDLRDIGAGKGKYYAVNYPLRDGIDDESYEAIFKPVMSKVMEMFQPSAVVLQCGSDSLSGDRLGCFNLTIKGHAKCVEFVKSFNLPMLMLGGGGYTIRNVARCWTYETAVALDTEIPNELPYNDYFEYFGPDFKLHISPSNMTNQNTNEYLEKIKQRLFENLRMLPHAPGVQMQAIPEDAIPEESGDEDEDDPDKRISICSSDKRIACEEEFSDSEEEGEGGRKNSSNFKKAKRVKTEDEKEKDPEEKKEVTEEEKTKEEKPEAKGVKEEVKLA
T2 sequence (P25440 whole entry): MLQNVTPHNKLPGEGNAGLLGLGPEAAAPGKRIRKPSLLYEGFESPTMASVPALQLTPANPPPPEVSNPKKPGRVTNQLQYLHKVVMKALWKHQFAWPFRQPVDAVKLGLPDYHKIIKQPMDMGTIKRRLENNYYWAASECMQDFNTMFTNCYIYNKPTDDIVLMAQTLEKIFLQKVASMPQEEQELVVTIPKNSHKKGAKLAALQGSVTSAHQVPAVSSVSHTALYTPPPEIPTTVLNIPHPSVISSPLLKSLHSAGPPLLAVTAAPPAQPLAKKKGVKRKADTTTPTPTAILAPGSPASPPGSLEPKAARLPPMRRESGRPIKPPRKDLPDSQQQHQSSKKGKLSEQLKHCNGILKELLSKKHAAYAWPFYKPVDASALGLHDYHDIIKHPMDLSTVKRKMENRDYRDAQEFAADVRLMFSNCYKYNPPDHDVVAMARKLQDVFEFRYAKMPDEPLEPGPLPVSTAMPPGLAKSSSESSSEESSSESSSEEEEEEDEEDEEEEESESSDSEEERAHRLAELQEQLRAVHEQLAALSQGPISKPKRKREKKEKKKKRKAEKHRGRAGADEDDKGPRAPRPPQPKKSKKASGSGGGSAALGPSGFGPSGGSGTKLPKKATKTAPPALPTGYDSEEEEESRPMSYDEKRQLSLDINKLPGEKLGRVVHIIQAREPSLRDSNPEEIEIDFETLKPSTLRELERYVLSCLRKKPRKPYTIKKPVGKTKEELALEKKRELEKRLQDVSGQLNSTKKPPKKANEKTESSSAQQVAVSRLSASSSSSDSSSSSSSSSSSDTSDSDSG
T4 sequence (Q15059 whole entry): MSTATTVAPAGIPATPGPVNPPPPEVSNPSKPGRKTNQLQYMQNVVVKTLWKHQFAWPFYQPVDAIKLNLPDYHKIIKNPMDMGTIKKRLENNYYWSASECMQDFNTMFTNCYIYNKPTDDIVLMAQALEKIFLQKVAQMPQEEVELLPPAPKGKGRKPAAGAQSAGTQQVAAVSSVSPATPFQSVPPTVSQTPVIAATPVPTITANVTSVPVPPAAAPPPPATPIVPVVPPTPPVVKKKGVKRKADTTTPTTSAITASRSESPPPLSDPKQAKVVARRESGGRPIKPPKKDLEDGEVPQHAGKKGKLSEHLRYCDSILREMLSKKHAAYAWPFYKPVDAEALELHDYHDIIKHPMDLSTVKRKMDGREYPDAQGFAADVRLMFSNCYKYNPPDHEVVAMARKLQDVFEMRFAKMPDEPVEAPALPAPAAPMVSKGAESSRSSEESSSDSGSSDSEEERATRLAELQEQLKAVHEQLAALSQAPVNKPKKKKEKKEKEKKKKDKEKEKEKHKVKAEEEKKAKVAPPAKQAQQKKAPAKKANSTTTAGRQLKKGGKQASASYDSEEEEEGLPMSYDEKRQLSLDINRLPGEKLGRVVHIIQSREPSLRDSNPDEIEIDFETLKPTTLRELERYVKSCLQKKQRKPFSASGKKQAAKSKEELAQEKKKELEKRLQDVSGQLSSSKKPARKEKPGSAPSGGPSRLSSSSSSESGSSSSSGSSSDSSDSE
Sequence of Histone deacetylase 3 (O15379 whole entry): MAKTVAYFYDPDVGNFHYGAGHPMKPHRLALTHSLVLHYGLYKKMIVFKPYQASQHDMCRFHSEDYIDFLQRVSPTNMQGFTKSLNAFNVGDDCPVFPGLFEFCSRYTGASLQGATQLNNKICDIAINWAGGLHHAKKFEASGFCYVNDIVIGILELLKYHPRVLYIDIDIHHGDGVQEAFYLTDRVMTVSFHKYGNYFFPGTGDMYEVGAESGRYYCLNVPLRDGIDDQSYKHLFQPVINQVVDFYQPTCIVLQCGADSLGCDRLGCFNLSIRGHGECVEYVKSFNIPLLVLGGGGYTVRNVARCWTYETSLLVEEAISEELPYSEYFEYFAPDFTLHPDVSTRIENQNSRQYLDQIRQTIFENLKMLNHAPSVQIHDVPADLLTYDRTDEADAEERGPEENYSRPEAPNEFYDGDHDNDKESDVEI

CC(=O)N1c2ccc(-c3ccc(NC(=O)CCCCCCC(=O)NO)cc3)cc2[C@H](NC(=O)OC(C)C)C[C@@H]1C
IC50 [1]: 250 nM
IC50 (Histone deacetylase 1): 50 nM

COC(c1c(F)cccc1Cl)c1c[nH]c2ncc(-c3c(C)noc3C)cc12 (stereo not drawn)
IC50 [2]: < 1000 nM

Cc1sc2c(c1C)C(c1ccc(Cl)cc1)=N[C@@H](CC(=O)Nc1ccc(C(=O)NO)cc1)c1nnc(C)n1-2
IC50 [3]: 11 nM
IC50 [4]: 11 nM
IC50 [5]: 11 nM
IC50 [6]: 11 nM
IC50 [7]: 11 nM
IC50 [8]: 11 nM

O=C(CCCCCCn1cc(Cc2ccccc2)c2ccccc21)NO
IC50 (Histone deacetylase 3): 60 nM

Cc1sc2c(c1C)C(c1ccc(Cl)cc1)=N[C@@H](CC(=O)NCc1ccc(/C=C/C(=O)NO)cc1)c1nnc(C)n1-2
IC50 [9]: 1580 nM
IC50 [1]: 1350 nM
IC50 (Histone deacetylase 1): > 20000 nM

Cc1sc2c(c1C)C(c1ccc(Cl)cc1)=N[C@@H](CC(=O)Nc1ccc(NC(=O)CCCCCCC(=O)NO)cc1)c1nnc(C)n1-2
IC50 [9]: 11000 nM
IC50 [1]: 4530 nM
IC50 (Histone deacetylase 1): 1110 nM

Cc1sc2c(c1C)C(c1ccc(Cl)cc1)=N[C@@H](CC(=O)Nc1ccc(C(=O)Nc3ccccc3N)cc1)c1nnc(C)n1-2
IC50 [9]: 74 nM
IC50 [1]: 720 nM
IC50 (Histone deacetylase 1): 290 nM

Cc1sc2c(c1C)C(c1ccc(Cl)cc1)=N[C@@H](CC(=O)NCCCC(=O)Nc1ccccc1N)c1nnc(C)n1-2
IC50 (Histone deacetylase): 31.24 nM
viability at 3 µM (U-937): 16.1%
IC50 [10]: 29.6 nM

O=C(CCCCCCC(=O)Nc1ccccc1)NO [VORINOSTAT]
IC50 [10]: 43.1 nM
